The values below come from PubChem BioAssay (NCI).

Common to all, as to experiment: NCI tumour cell line growth inhibition, 48 h
The test system of experiment [1] is MDA-MB-435.
The test system of experiment [2] is SNB-19 CNS.
Experiment [3] deals with HCT-15 colon.
In experiment [4] the test system is IGROV1 ovarian.
Experiment [5] relates to MCF7 breast.
Experiment [6] concerns UACC-257 melanoma.
Experiment [7] deals with NCI-H522 lung.
The test system of experiment [8] is A498 renal.
For experiment [9], the system named is SF-539 CNS.
Experiment [10] concerns SW-620 colon.

Several values for one entry are separate records, joined by “and”; a condition that tells them apart may be missing. Equal entries are not always repeated.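 Cells were grown in 96-well plates and exposed to each compound for 48 hours at five concentrations; endpoints were interpolated linearly between bracketing concentrations, or set to the highest concentration if not reached. GI50: concentration for 50% inhibition of growth. TGI: concentration producing complete growth inhibition.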

`Cc1ccc2c(C(C[N+](=O)[O-])c3ccccc3)c(-c3ccccc3)[nH]c2c1` (stereo not given): the GI50 in experiment [1] is 4.1 µM; in experiment [2], 43.7 µM; in experiment [3], 20.7 µM; in experiment [4], 13.4 µM; in experiment [5], 13.5 µM; in experiment [6], 29.3 µM. Also, the GI50 in [7] was 3.17 µM; in experiment [8] it was 24.9 µM; in [9], 22.8 µM; in [10], 16.6 µM. The TGI in experiment [1] was 29.2 µM; in experiment [2], above 95 µM; in [3], above 95 µM; in [4], above 95 µM; in experiment [5] it was above 95 µM; in experiment [6] it was above 95 µM. Moreover, the TGI in experiment [7], in [8], in experiment [9] and in experiment [10] was above 95 µM in each case.
Regarding `Cc1ccc(OP(=O)(Oc2ccc(C)cc2)N2C=Cc3ccccc3C2C#N)cc1` (stereo not given), the TGI in experiment [1], in experiment [2], in experiment [3], in experiment [4], in [5] and in experiment [6] was above 100 µM each time. Also, the TGI in experiment [7], in experiment [8], in experiment [9] and in experiment [10] was above 100 µM in each case.
For `COc1nc(N)nc2c1ncn2C1CC(O)C(CO)O1` (stereo not given), the TGI in [1], in [2], in experiment [3], in experiment [4], in [5] and in experiment [6] was above 100 µM in each case. Further, the TGI in experiment [7], in [8], in [9] and in experiment [10] was above 100 µM each time.
`Cc1cc(OCc2nnc3n2S(=O)(=O)c2ccccc2N3C)ccc1Cl`: the TGI is above 100 µM in experiment [1]; 39.1 µM in experiment [2]; above 100 µM in experiment [3]; above 100 µM in experiment [4]; above 100 µM in experiment [5]; above 100 µM in experiment [6]. Besides, the TGI in experiment [7] is 45.6 µM; in experiment [8], 55.3 µM; in experiment [9], 38.6 µM; in experiment [10], above 100 µM.
As for `CCOC(=O)C(=Cc1ccc(C#N)cc1)C(=O)OCC`, the GI50 is 1.98 µM in experiment [1]; 2.66 µM in [2]; 2.03 µM in experiment [3]; 2.61 µM in [4]; 2.07 µM in experiment [5]; 2.41 µM in [6]. Besides, the GI50 in experiment [7] was 1.48 µM; in [8] it was 7.84 µM; in experiment [9], 1.91 µM; in experiment [10], 2.1 µM. The TGI is 4.79 µM in [1]; 7.7 µM in experiment [2]; 6.17 µM in experiment [3]; 7.96 µM in experiment [4]; 7.61 µM in experiment [5]; 5.63 µM in experiment [6]. The TGI in experiment [7] was 3.1 µM; in experiment [8] it was 20.1 µM; in [9] it was 4.15 µM; in experiment [10] it was 4.72 µM.
In the case of `NC(=O)c1cc(N2CC2)c([N+](=O)[O-])cc1[N+](=O)[O-]`, the TGI in [1] is above 200 µM; in experiment [2] it was above 200 µM; in experiment [3] it was above 200 µM; in experiment [4], above 200 µM; in experiment [5] it was above 63.2 µM; in [6], above 200 µM. The TGI in experiment [7] was above 200 µM; in experiment [8], 200 µM; in experiment [9] it was above 200 µM; in experiment [10], above 200 µM. For the same compound, the GI50 in [2], in [4], in experiment [6], in experiment [7], in [9] and in [10] was above 200 µM in each case.
For `NC(=S)N/N=C/c1ccc(OC(=O)COc2cc(Cl)c(Cl)cc2Cl)cn1`, the GI50 was 6.68 µM in [1]; 5.87 µM in experiment [2]; 6.84 µM in [3]; 7.65 µM in experiment [4]; 2.09 µM in experiment [5]; 11 µM in experiment [6]. The GI50 in experiment [7] was 3.17 µM; in [8], 14.2 µM; in experiment [9] it was 2.37 µM; in experiment [10] it was 5.75 µM. The TGI in experiment [1] was above 100 µM; in experiment [2], above 100 µM; in experiment [3] it was above 100 µM; in experiment [4] it was above 100 µM; in experiment [5], above 100 µM; in experiment [6] it was 51.5 µM. Also, the TGI in experiment [7] is 67.5 µM; in [8] it was above 100 µM; in experiment [9], 10.3 µM; in [10], above 100 µM.
As to `Cn1ncc(Cl)c1-c1cc(C(=O)N[C@H](CN)Cc2cccc(F)c2)sc1Cl`, the GI50 in experiment [1] was 1.31 µM and 2.36 µM; in experiment [2] it was 0.34 µM and 0.783 µM; in experiment [3], 1.44 µM and 2.59 µM; in [4], 0.0387 µM and 0.0478 µM; in experiment [6] it was 1.44 µM and 2.88 µM; in experiment [7], 1.41 µM and 6.34 µM. Also, the GI50 is 0.126 µM and 0.104 µM in [8]; 0.313 µM and 0.325 µM in experiment [9]; 2.16 µM and 7.33 µM in experiment [10]. In addition, the TGI in [1] was > 5.99 µM and 12.7 µM; in experiment [2], 1.87 µM and 13.4 µM; in experiment [3], > 10 µM and 16.2 µM; in [4], 2.65 µM and 4.18 µM; in experiment [5], 2.6 µM and 11.4 µM; in experiment [6], 3.71 µM and 9.91 µM. The TGI in [7] is > 5.8 µM and 20.3 µM; in experiment [8], 0.705 µM and 0.779 µM; in experiment [9], 3.22 µM and 4.64 µM; in experiment [10], > 10 µM and 21 µM.
Consider `Cc1c(Cn2c(C)nc3c(C(=O)O)cc(N4CCOCC4)cc32)cccc1C(F)(F)F`, for which the GI50 in experiment [1] is 66 µM; in experiment [2] it was above 100 µM; in experiment [3], 4.58 µM; in [4], 40.2 µM; in experiment [5] it was 42.7 µM; in experiment [6] it was 61.1 µM. Further, the GI50 in experiment [7] is 89 µM; in [8] it was 0.0339 µM; in experiment [9], 72.6 µM; in experiment [10], 45.5 µM. For the same compound, the TGI in experiment [1], in experiment [2], in [3], in experiment [4], in experiment [5] and in experiment [6] was above 100 µM each time. Also, the TGI in experiment [7] was above 100 µM; in experiment [8], 0.319 µM; in experiment [9], above 100 µM; in experiment [10], above 100 µM.
